Source: ChEMBL document CHEMBL1158855, “Study on cytotoxic oxygenated desmosterols isolated from the red alga Galaxaura marginata” (1997)
Converted amounts (≈) assume the structure as drawn.

Experiments:
Format in all cases: functional
Settings in all cases: read-out: ED50 (the source's name)
KB = assay: Cytotoxicity against human KB cells by MTT assay
HT-29 = assay: Cytotoxicity against human HT29 cells by MTT assay
P388 = assay: Cytotoxicity against mouse P388 cells by MTT assay
A549 = assay: Cytotoxicity against human A549 cells by MTT assay

SMILES | EC50 (KB) [µg/mL] | EC50 (HT-29) [µg/mL] | EC50 (P388) [µg/mL] | EC50 (A549) [µg/mL]
C=C(C)C(CC[C@@H](C)[C@H]1CC[C@H]2[C@@H]3C[C@@H](O)C4=CC(=O)CC[C@]4(C)[C@H]3CC[C@]12C)OO (stereo not given in full) | 0.79 (≈ 1.83 µM) | 0.47 (≈ 1.09 µM) | 0.22 (≈ 0.511 µM) | 0.58 (≈ 1.35 µM)
C=C(C)C(O)CC[C@@H](C)[C@H]1CC[C@H]2[C@@H]3C[C@@H](O)C4=CC(=O)CC[C@]4(C)[C@H]3CC[C@]12C (stereo not given in full) | 0.83 (≈ 2 µM) | 0.3 (≈ 0.724 µM) | 0.19 (≈ 0.458 µM) | 2.37 (≈ 5.72 µM)
C=C(C)C(=O)CC[C@@H](C)[C@H]1CC[C@H]2[C@@H]3CC(=O)C4=CC(=O)CC[C@]4(C)[C@H]3CC[C@]12C | 0.24 (≈ 0.585 µM) | 0.3 (≈ 0.731 µM) | 0.11 (≈ 0.268 µM) | 0.27 (≈ 0.658 µM)
C[C@H](C/C=C/C(C)(C)OO)[C@H]1CC[C@H]2[C@@H]3C[C@@H](O)C4=CC(=O)CC[C@]4(C)[C@H]3CC[C@]12C | 0.4 (≈ 0.929 µM) | 0.63 (≈ 1.46 µM) | 0.28 (≈ 0.65 µM) | 1 (≈ 2.32 µM)
C[C@H](C/C=C/C(C)(C)O)[C@H]1CC[C@H]2[C@@H]3C[C@@H](O)C4=CC(=O)CC[C@]4(C)[C@H]3CC[C@]12C | 0.45 (≈ 1.09 µM) | 0.55 (≈ 1.33 µM) | 0.14 (≈ 0.338 µM) | 1.54 (≈ 3.71 µM)
